Literature values as cited in patent US20130312498A1, “CARDIOVASCULAR DISEASE RISK ASSESSMENT AND TREATMENT BY STEROL AND/OR STANOL MARKERS” (FOUNDATION FOR HEALTH IMPROVEMENT AND TECHNOLOGY, priority 2012, published 2013).

What was measured:
[1] = target: T1, NPC1L1/AP2-clathrin complex (Homo sapiens, UniProt Q9UHC9); settings: typical effect, intestinal sterol absorption
T1 construct: from tissue; host or cells: intestinal epithelium (in vivo, patients)
T1 sequence (Q9UHC9 22-1359): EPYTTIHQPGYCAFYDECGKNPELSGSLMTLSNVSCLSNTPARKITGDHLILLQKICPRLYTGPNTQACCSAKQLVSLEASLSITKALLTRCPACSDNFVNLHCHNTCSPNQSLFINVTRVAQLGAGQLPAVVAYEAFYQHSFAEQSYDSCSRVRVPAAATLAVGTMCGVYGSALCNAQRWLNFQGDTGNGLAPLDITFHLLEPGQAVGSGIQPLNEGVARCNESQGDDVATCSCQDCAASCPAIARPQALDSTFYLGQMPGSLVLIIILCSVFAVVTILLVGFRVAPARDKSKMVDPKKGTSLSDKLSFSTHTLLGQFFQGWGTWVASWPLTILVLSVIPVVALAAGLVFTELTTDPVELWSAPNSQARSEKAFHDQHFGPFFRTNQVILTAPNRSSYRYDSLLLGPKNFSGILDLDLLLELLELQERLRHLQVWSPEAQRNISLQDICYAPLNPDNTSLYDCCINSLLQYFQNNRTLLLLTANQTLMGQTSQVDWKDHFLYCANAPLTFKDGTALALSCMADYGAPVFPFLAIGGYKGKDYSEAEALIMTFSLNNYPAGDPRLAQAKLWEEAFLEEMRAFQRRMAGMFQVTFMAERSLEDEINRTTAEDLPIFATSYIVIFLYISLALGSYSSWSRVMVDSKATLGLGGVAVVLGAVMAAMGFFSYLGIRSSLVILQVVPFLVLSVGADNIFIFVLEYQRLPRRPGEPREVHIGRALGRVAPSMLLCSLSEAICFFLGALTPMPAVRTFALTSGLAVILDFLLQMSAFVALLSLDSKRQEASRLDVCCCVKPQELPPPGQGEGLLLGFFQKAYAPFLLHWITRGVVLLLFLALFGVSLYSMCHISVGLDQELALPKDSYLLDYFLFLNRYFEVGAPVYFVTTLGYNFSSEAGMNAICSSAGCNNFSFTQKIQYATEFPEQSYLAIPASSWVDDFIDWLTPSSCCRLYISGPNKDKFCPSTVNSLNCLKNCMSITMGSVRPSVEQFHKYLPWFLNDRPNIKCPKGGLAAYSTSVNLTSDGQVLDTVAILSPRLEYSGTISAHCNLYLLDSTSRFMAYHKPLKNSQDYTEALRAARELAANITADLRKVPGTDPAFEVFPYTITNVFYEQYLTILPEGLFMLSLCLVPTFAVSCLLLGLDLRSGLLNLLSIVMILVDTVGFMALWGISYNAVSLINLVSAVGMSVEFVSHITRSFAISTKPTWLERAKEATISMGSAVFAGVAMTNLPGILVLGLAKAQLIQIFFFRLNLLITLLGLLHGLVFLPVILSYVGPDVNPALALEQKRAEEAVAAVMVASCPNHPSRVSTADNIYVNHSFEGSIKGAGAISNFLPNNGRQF

[2] = tested on: fatty acid absorption; settings: in vivo

O=C1[C@H](CC[C@H](O)c2ccc(F)cc2)[C@@H](c2ccc(O)cc2)N1c1ccc(F)cc1 [Ezetimibe]
reduction of sterol absorption [1]: about 50% | effect on fatty acid absorption [2]: no effect
